Measurements: PMC5774622 (Biochimie, 2017)
Blank lines part the entries; values can stand above or below the compound they belong to. Ends that are not written are not given here.

What was measured:
[1] = system: TFEB nuclear translocation; settings: cited from earlier work
purified recombinant CN = purified recombinant CN (Rattus norvegicus, UniProt P63100+P63329); assay: Fluorescence polarization
[2] = system: interaction between GST-CNA and GFP-TFEB; assay: GST pull-down of GFP-TFEB by GST-CNA; format: binding; settings: quercetin 50 μM and 100 μM; GFP-TFEB transfected in HeLa cells
PVIVIT peptide = settings: cited from earlier work
[3] = molecular target: NFAT PRIEIT peptide (Homo sapiens); settings: cited from earlier work
CN [4] = settings: kinetics comparable to intact RII; cited from earlier work
CN [5] = molecular target: CN (Rattus norvegicus, UniProt P63100+P63329); assay: CN phosphatase colorimetric assay with RII phosphopeptide as substrate; format: biochemical
[6] = system: CNA in mouse brain lysates; assay: GST pull-down of CNA from mouse brain lysates; format: binding; settings: addition of synthetic peptide to pull-down

Sequence of purified recombinant CN (P63100 whole entry, other chains not shown): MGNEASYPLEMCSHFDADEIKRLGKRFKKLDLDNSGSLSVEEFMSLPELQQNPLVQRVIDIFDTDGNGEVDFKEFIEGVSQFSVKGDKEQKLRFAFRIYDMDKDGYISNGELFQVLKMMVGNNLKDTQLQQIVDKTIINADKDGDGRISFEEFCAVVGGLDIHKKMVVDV

Compound: C=CC[C@@H]1/C=C(\C)C[C@H](C)C[C@H](OC)[C@H]2O[C@@](O)(C(=O)C(=O)N3CCCC[C@H]3C(=O)O[C@H](/C(C)=C/[C@@H]3CC[C@@H](O)[C@H](OC)C3)[C@H](C)[C@@H](O)CC1=O)[C@H](C)C[C@@H]2OC [FK506]
TFEB nuclear translocation during starvation [1]: reduce TFEB nuclear translocation

IC50 (purified recombinant CN): ~5 µM
Compound: CC(C)C[C@H](NC(=O)[C@H](Cc1ccc(O)cc1)NC(=O)[C@H](CCC(N)=O)NC(=O)[C@@H](N)CC(=O)O)C(=O)N[C@@H](C)C(=O)N[C@H](C(=O)N1CCC[C@H]1C(=O)N[C@@H](CCC(N)=O)C(=O)N[C@@H](Cc1c[nH]cn1)C(=O)N1CCC[C@H]1C(=O)N[C@@H](Cc1ccc(O)cc1)C(=O)N[C@@H](CCC(N)=O)C(=O)N[C@@H](Cc1c[nH]c2ccccc12)C(=O)N[C@@H](C)C(=O)N[C@@H](CCCCN)C(=O)O)C(C)C [NFATc1-YLAVP]

Compound: O=c1c(O)c(-c2ccc(O)c(O)c2)oc2cc(O)cc(O)c12 [quercetin]
effect on interaction between GST-CNA and GFP-TFEB [2]: blocks the interaction

Compound: Calcineurin (from UniProt Q08209)
Kd (PVIVIT peptide): 0.5 µM
Kd [3]: 25 µM

Compound: DLDVPIPGRFDRRVpSVAAE [RII phosphopeptide]
Vmax of dephosphorylation by CN (CN [4]): 1.7 µmol/min/mg

IC50 (CN [5]): 130 µM
Compound: ESILLVPPTWPKPLV [NFATc2-ILLVP]

IC50 (CN [5]): 131 µM
Compound: GSSHLAPPNPDKQFL [RCAN1-HLAPP]

Compound: QSYLENPTSYHLQQS [TFEB-YLENP]
effect on interaction between GST-TFEB-YLENP and CNA [6]: greatly inhibited
